Data from patent publication US8642647B2, “N1-benzo[1,3]dioxol-5-ylmethyl-N2-substituted biguanide derivative, preparation method thereof, and pharmaceutical composition containing same” (Hanall Biopharma Co., Ltd., priority 2008, dated 2014).
Counter-ions that a name gives are not always drawn.

Assays:
Type in all cases: cell-based
HepG2 cells [1] = assay: Measurement of cholesterol synthesis inhibitory ability; details: for Cholesterol (100 μM) aver.: 100 μM compound; for Cholesterol (100 μM) aver. / Cholesterol (500 μM) aver.: 24 hours, HepG2 cells, content of cholesterol formed, lower value = stronger inhibition; for Cholesterol (500 μM) aver.: 500 μM compound
Protocol: (§1) 2 mM metformin was used as a comparative compound for each of the plates (control group).
A cholesterol synthesis inhibitory ability, which is an important function of AMPK (AMP-activated protein kinase), was measured using HepG2 cells (ATCC: American Type Culture Collection) as a hepatic cell model according to the following procedure.
The hepatic cell model HepG2 cells were cultured in 1% serum-containing media (DMEM (Gibco), FBS (Gibco)) for 24 hours, and then treated with 100 μM or 500 μM of each of the compounds prepared in Examples for 24 hours. Then, the cells were disrupted with a lysis solution (0.1 M potassium phosphate, pH 7.4, 0.05 M NaCl, 5 mM cholic acid, 0.1% Triton X-100 (Sigma)). To the disrupted cells was added the same volume of a reaction solution (2 U/ml of a cholesterol oxidizing agent, 2 U/ml of a peroxidase, 0.2 U/ml of a cholesterol esterase, and 300 μM of Amplex red as a fluorescent factor (Molecular Probe)), which was allowed to react at 37° C. for 30 minutes. After completion of the reaction, the content of cholesterol formed in the cell lysates was measured at a wavelength of 560/590 nm (ex/em) using a fluorescence microscope.
A lower measurement value means an increased cholesterol synthesis inhibitory ability.

HepG2 cells [2] = assay: Measurement of triglyceride synthesis inhibitory ability; details: for Triglyceride (100 μM) aver.: 100 μM compound; for Triglyceride (100 μM) aver. / Triglyceride (500 μM) aver.: 24 hours, HepG2 cells, content of triglyceride formed, lower value = stronger inhibition; for Triglyceride (500 μM) aver.: 500 μM compound
Protocol: as §1
HepG2 cells (ATCC: American Type Culture Collection) were cultured in 1% serum-containing media (DMEM (Gibco), FBS (Gibco)) for 24 hours, and then treated with 100 μM or 500 μM of each of the compounds prepared in Examples for 24 hours. Then, the cells were disrupted with a lysis solution (0.1 M potassium phosphate, pH 7.4, 0.05 M NaCl, 5 mM cholic acid, 0.1% Triton X-100). To the disrupted cells was added the same volume of a reaction solution (0.76 U/ml of a glycerol kinase (Asan Pharmaceutical Co., Ltd.), […] of a peroxidase (Asan Pharmaceutical Co., Ltd.), 22.2 U/ml of a glycerol oxidizing agent (Asan Pharmaceutical Co., Ltd.), and 300 μM of Amplex red as a fluorescent factor (Molecular Probe)), which was allowed to react at 37° C. for 30 minutes. After completion of the reaction, the content of triglyceride formed in the cell lysates was measured at a wavelength of 560/590 nm (ex/em) using a fluorescence microscope.
A lower measurement value means an increased triglyceride synthesis inhibitory ability.

HepG2 cells [3] = assay: Measurement of gluconeogenesis inhibitory ability; details: Homo sapiens, HepG2, 24 h, 100 μM compound, 24 hours, HepG2 cells; content of glucose formed from 14C-lactate; lower value = stronger inhibition; read-out: Gluconeogenesis inhibition (100 μM) aver.
Protocol: as §1
HepG2 cells (ATCC: American Type Culture Collection) were cultured in 10% serum-containing high glucose media, transferred to no serum-containing low glucose media (DMEM (Gibco), FBS (Gibco)), and then treated with 100 μM of each of the compounds for 24 hours. Then, the cells were treated with 0.5 μCi ^14C-lactate (Amersham Pharmacia) and 10 mM L-lactate (Sigma), and cultured for 4 hours. After cultivation, the media were removed therefrom, and the cells were washed with PBS, treated with 0.1N NaOH and kept at room temperature for 1 hour. Then, the cells were neutralized with 1N HCl, and the content of glucose formed in the cells was measured with a liquid scintillation counter.
A lower measurement value means an increased gluconeogenesis inhibitory ability.

[4] = 100 μM compound versus 2 mM metformin

Structure (SMILES) | Cholesterol (100 μM) aver. (HepG2 cells [1]) | Cholesterol (500 μM) aver. (HepG2 cells [1]) | Triglyceride (100 μM) aver. (HepG2 cells [2]) | Triglyceride (500 μM) aver. (HepG2 cells [2]) | activity at 100 µM (HepG2 cells [3]) | effect in inhibiting cholesterol synthesis better than that of the control group (HepG2 cells [1]; [4]) | effect in inhibiting triglyceride synthesis better than that of the control group (HepG2 cells [2]; [4])
N=C(N)NC(=NCCc1ccccc1)NCc1ccc2c(c1)OCO2 [Example 7, N1-benzo[1,3]dioxol-5-ylmethyl-N2-(phenethyl)biguanide hydrochloride] | 23.6 | 12.9 | 77.1 | 11.8 | 118% | – | –
N=C(N)NC(=Nc1cccc2ccccc12)NCc1ccc2c(c1)OCO2 [Example 3, N1-benzo[1,3]dioxol-5-ylmethyl-N2-(1-naphthyl)biguanide hydrochloride] | 8.11 | 28.8 | 3.74 | −6.97 | 3.27% | – | –
CC(C)(C)c1ccc(N=C(NCc2ccc3c(c2)OCO3)NC(=N)N)cc1.Cl [Example 33, N1-benzo[1,3]dioxol-5-ylmethyl-N2-(4-t-butylphenyl)biguanide hydrochloride] | 20.42 | 30.52 | 27.40 | 7.08 | 2.35% | – | –
CCN=C(NCc1ccc2c(c1)OCO2)NC(=N)N.Cl [Example 1, N1-benzo[1,3]dioxol-5-ylmethyl-N2-ethyl biguanide hydrochloride] | 66.3 | 50.8 | 98.6 | 49.6 | 89.8% | – | –
CCCCCCc1ccc(N=C(NCc2ccc3c(c2)OCO3)NC(=N)N)cc1.Cl [Example 25, N1-benzo[1,3]dioxol-5-ylmethyl-N2-(4-hexylphenyl)biguanide hydrochloride] | 82.62 | 125.3 | 18.43 | 35.53 | 2.53% | – | –
Cl.N=C(N)NC(=Nc1cccc(C(F)(F)F)c1)NCc1ccc2c(c1)OCO2 [Example 10, N1-benzo[1,3]dioxol-5-ylmethyl-N2-(3-trifluoromethylphenyl)biguanide hydrochloride] | 33.41 | – | 11.52 | – | 2.76% | – | –
Cl.N=C(N)NC(=Nc1ccccc1)NCc1ccc2c(c1)OCO2 [Example 45, N1-benzo[1,3]dioxol-5-ylmethyl-N2-phenyl biguanide hydrochloride] | 77.21 | 23.24 | 96.12 | 35.45 | 117% | – | –
Cl.N=C(N)NC(=NC1CCCC1)NCc1ccc2c(c1)OCO2 [Example 19, N1-benzo[1,3]dioxol-5-ylmethyl-N2-cyclopentyl biguanide hydrochloride] | 57.58 | 27.93 | 100.59 | 80.60 | 92.7% | – | –
Cl.N=C(N)NC(=Nc1ccc2c(c1)Cc1ccccc1-2)NCc1ccc2c(c1)OCO2 [Example 13, N1-benzo[1,3]dioxol-5-ylmethyl-N2-(2-fluorenyl)biguanide hydrochloride] | 31.42 | – | 9.22 | – | 2.15% | – | –
COc1cc(N=C(NCc2ccc3c(c2)OCO3)NC(=N)N)cc(OC)c1.Cl [Example 26, N1-benzo[1,3]dioxol-5-ylmethyl-N2-(3,5-dimethoxyphenyl)biguanide hydrochloride] | 61.86 | 17.53 | 86.94 | 21.88 | 87.6% | – | –
COCCOCCOCCN=C(NCc1ccc2c(c1)OCO2)NC(=N)N.Cl [Example 46, N1-benzo[1,3]dioxol-5-ylmethyl-N2-(2-(2-(2-methoxyethoxy)ethoxy)ethyl)biguanide hydrochloride] | 90.31 | 91.68 | 89.69 | 93.41 | 101% | – | –
Cl.N=C(N)NC(=Nc1ccc(Br)cc1)NCc1ccc2c(c1)OCO2 [Example 32, N1-benzo[1,3]dioxol-5-ylmethyl-N2-(4-bromophenyl)biguanide hydrochloride] | 11.62 | 20.56 | 35.08 | 17.38 | 4.42% | – | –
CCCCCN=C(NCc1ccc2c(c1)OCO2)NC(=N)N.Cl [Example 40, N1-benzo[1,3]dioxol-5-ylmethyl-N2-pentyl biguanide hydrochloride] | 57.36 | 27.89 | 101.4 | 50.00 | 84.6% | – | –
COc1ccc(N=C(NCc2ccc3c(c2)OCO3)NC(=N)N)cc1.Cl [Example 15, N1-benzo[1,3]dioxol-5-ylmethyl-N2-(4-methoxyphenyl)biguanide hydrochloride] | 52.95 | – | 104.17 | – | 75.6% | at least 20 times | –
COc1ccc(CN=C(NCc2ccc3c(c2)OCO3)NC(=N)N)cc1.Cl [Example 37, N1-benzo[1,3]dioxol-5-ylmethyl-N2-(4-methoxybenzyl)biguanide hydrochloride] | 60.36 | 32.20 | 62.82 | 58.60 | 104% | – | at least 20 times
Cl.N=C(N)NC(=NC12CC3CC(CC(C3)C1)C2)NCc1ccc2c(c1)OCO2 [Example 27, N1-benzo[1,3]dioxol-5-ylmethyl-N2-(1-adamantyl)biguanide hydrochloride] | 64.82 | 45.24 | 67.58 | 11.48 | 31.4% | – | –
Cl.N=C(N)NC(=NC1CC1)NCc1ccc2c(c1)OCO2 [Example 38, N1-benzo[1,3]dioxol-5-ylmethyl-N2-cyclopropyl biguanide hydrochloride] | 57.32 | 47.06 | 95.00 | 61.43 | 78.9% | – | –
CC(C)N=C(NCc1ccc2c(c1)OCO2)NC(=N)N.Cl [Example 22, N1-benzo[1,3]dioxol-5-ylmethyl-N2-isopropyl biguanide hydrochloride] | 63.99 | 34.97 | 78.51 | 60.13 | 83% | – | –
C=CCN=C(NCc1ccc2c(c1)OCO2)NC(=N)N [Example 18, N1-benzo[1,3]dioxol-5-ylmethyl-N2-allyl biguanide hydrochloride] | 40.31 | 9.71 | 97.00 | 46.89 | 95.1% | – | –
CCCCN=C(NCc1ccc2c(c1)OCO2)NC(=N)N.Cl [Example 39, N1-benzo[1,3]dioxol-5-ylmethyl-N2-butyl biguanide hydrochloride] | 70.48 | 49.52 | 98.77 | 64.23 | 87.3% | – | –
